Results reported in the NIST ThermoML archive (doi:10.1016/j.jct.2015.12.018).
Numbers after ± are expanded uncertainties.

Test: molar enthalpy of vaporization or sublimation
Conditions: 298.15 K; Crystal; Static calorimetry

Row | molar enthalpy [kcal/mol] | Structure (SMILES)
1 | 21.1 ± 1.05 | O=C1OCc2ccccc21 [1(3H)-isobenzofuranone]
2 | 21 ± 1.12 | O=C1OC(=O)c2ccccc21 [isobenzofuran-1,3-dione]
